From patent publication US12612403B2, “Nitrogen-containing heterocyclic derivative inhibitor, and preparation method therefor and use thereof” (SHANGHAI HANSOH BIOMEDICAL CO., LTD., priority 2024, dated 2026)

Experiments:
[1] = tested on: PCSK9 secreted by HepG2 cells; assay: Effect on the concentration of PCSK9 secreted by HepG2 cells (ELISA); assay type: cell-based; conditions: Homo sapiens, 48 hours, PCSK9 in culture medium by ELISA
Protocol: 1. Experimental objective: To detect the inhibitory effect of the compounds on PCSK9.
2. Experimental method: • 1) HepG2 cell strain was cultured in the complete culture medium at 37° C., 5% CO2 to 70-90% confluence. • 2) The cells were digested and resuspended in the experimental culture medium, inoculated at 25,000 cells/well/200 μL in a 96-well cell culture plate, and cultured at 37° C. and 5% CO2 for 20-24 hours. • 3) The culture medium was removed from the cell culture plate, and the cell culture plate was washed once by adding 200 ul of the experimental culture medium to each well. • 4) Preparation of positive control compound and compound to be tested: the positive control compound and the compound to be tested were diluted on the compound plate. • 5) The diluted compound was added to the cell culture plate at 250 μL per well and incubated at 37° C. and 5% CO2 for 48 hours. • 6) The cell culture medium was collected at 200 μL per well and cryopreserved at −80° C. for later use. • 7) A sample of the cell culture medium was taken from the −80° C. cryopreservation condition, dissolved, vortexed, and centrifuged for later use. • 8) Preparation of standard curve: corresponding volumes of Dilution buffer were successively added to respective standard tubes, and in the order of the concentrations of 10, 5, 2.5, 1.25, 0.625, 0.313, 0.16, 0 ng/mL, the standard was diluted in series by taking the corresponding volume from the original tube or the last concentration tube. • 9) Preparation of washing liquid: 10x Wash buffer was diluted into 1x with Milli-Q for later use. • 10) According to the standard curve wells and sample wells set according to a plate map, 100 μL/well of the corresponding standards and culture medium samples were added to the wells, with 2 replicate wells. A self-adhesive seal was applied, the plate was placed on a plate shaker at room temperature, gently shaken, uniformly mixed, and incubated for 1 hour. • 11) The plate was placed on the plate washer, the washing liquid was set to 350 μL per well, and the plate was washed 4 times repeatedly. • 12) 100 μL/well of an HRP-conjugated detection antibody was added, a self-adhesive seal was applied, and the plate was placed on the plate shaker, well mixed uniformly, and incubated for 1 hour. • 13) The plate was placed on the plate washer, the washing liquid was set to 350 μL per well, and the plate was washed 4 times repeatedly. • 14) 100 μL/well of Substrate reagent was added, and the plate was placed in the dark, applied with a self-adhesive seal, placed on the plate shaker, well mixed uniformly, and incubated for 10-20 minutes. • 15) 100 μL of Stop solution (1N H2SO4) was added to each well and mixed uniformly. • 16) The optical density (OD) value in each well was measured in sequence at a wavelength of 450 nm by the microplate reader. Detection was carried out within 30 min after the reaction was stopped.
3. Experimental data processing method: After the OD values were read by the microplate reader, the OD value of the 0-concentration standard in the standard group was subtracted from the OD values of the standards, control group, and samples to obtain the actual OD values for these wells. A standard curve was plotted with Graphpad and the concentration of the sample was calculated. If the dilution was performed during the sample detection, the calculated sample concentration was necessarily multiplied by the corresponding dilution ratio in the final calculation, which was the actual concentration of the sample. Inhibition rate=(actual concentration in control−actual concentration in sample)/actual concentration in control*100. According to the inhibition rates corresponding to the different concentrations, IC50 was derived by Graphpad.

PCSK9 protein = biological target: T1, PCSK9 protein (Homo sapiens, UniProt Q8NBP7); assay: Binding ability to PCSK9 protein (HTRF); conditions: PCSK9-His, Alexa Fluor 647 probe compound
T1 construct: purchased Sino biology (Sino Biological) 29698-H08H
Protocol: 1. Experimental objective: To detect the action of compounds to bind PCSK9 protein by an HTRF method.
3. Experimental data processing method: Four-parameter log(inhibitor) vs. response—Variable slope (four parameters) in XLit was used to perform non-linear fitting of the compound concentration and the corresponding inhibition rate, and IC50 was calculated.

[2] = Pharmacokinetic determination in mice (PO 5 mg/kg, IV 1 mg/kg); assay type: in vivo, C57BL/6J mice; conditions: male, C57BL/6J, mouse, plasma, C57 mice, PO administration, 5 mpk; for AUC(0-inf): read-out: Area under the curve AUC0-∞; for half-life: read-out: Half-life t1/2 (converted); for MRT: read-out: Mean residence time MRT; for Cmax: read-out: Plasma concentration Cmax; for Tmax: read-out: Time to peak tmax
Protocol: 1. Experimental objective: C57BL/6J mice were used as test animals to study the pharmacokinetic behavior of the compounds of the present disclosure in mice (plasma) after oral and intravenous administration.
2.2 Test animals: C57 mice, male, purchased from Shanghai Bk Lab Animal Co., Ltd., with animal production license number (SCXK (Shanghai) 2013-0006 N0.311620400001794).
2.3 Drug preparation: Preparation of oral drug: 10% Solutol HS15
10 g of Solutol HS15 solid was weighed, dissolved in 90 mL of pure water, uniformly mixed, stirred, and ultrasonically treated to form a clear solution. The compound of the present disclosure was weighed and dissolved in this solution, uniformly shaken, and ultrasonically treated for 15 minutes to obtain a colorless clear solution with a concentration of 0.5 mg/mL. Preparation of intravenous drug: 5% DMSO+10% Solutol HS15+85% PBS, the compound of the present disclosure was weighed, 5% DMSO was first added on the basis of the proportion relative to the total volume of administration, and the mixture was vortexed and ultrasonically treated for 2 min until it was completely dissolved; 10% of Solutol HS15 was then added, and the mixture was vortexed and ultrasonically treated for 2 min until it was completely dissolved; and finally, 85% of PBS was added, and the mixture was vortexed, ultrasonically treated for 5 min, and filtered through a 0.22 um filter membrane to obtain a colorless and transparent clear solution with a concentration of 0.2 mg/mL.
2.4 Administration: 3 male C57 mice were fasted overnight and then respectively administered PO at a dose of 5 mg/kg and a volume of 10 mL/kg. 3 male C57 mice were fasted overnight and then respectively administered IV at a dose of 1 mg/kg and a volume of 5 mL/kg.
2.5 Sample collection: Before and after administration of mice, 0.04 mL of blood was collected from the orbit at 0.083 (iv), 0.25, 0.5, 1, 2, 4, 8, and 24 hours, and placed in EDTA-K2 test tubes, which was centrifuged at 6000 rpm at 4° C. for 6 min to separate plasma which was stored at −80° C.; and the […] were fed 4 h after administration.
2.6 Determination results: The final determination results were obtained by using an LCMS/MS method.
3. Experimental results: The main pharmacokinetic parameters were calculated using WinNonlin 6.1.

T1 sequence (Q8NBP7 153-692): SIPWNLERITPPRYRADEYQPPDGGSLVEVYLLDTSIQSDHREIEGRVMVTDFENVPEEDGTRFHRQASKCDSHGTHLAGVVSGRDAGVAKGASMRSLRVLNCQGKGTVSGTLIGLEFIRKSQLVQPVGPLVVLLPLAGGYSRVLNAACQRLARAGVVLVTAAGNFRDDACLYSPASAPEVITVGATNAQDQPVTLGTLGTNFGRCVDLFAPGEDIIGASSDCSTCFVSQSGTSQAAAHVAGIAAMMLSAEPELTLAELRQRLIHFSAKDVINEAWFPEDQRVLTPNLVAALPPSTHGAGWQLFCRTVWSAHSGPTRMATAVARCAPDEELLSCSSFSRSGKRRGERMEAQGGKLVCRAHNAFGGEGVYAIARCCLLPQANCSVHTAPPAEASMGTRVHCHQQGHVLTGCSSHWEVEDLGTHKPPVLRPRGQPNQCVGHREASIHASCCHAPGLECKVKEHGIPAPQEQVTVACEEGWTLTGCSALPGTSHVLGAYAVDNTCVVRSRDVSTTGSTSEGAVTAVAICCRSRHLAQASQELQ

| Structure (SMILES) | IC50 [1] [nM] | IC50 (PCSK9 protein) [nM] | further results |
| --- | --- | --- | --- |
| N#Cc1ccnc2c1C(=O)N(c1ccc(N[C@H]3CC[C@H](Nc4nc5cc(C(F)(F)F)ccn5n4)C3)nc1)C2 [Example 163] | 10800 | 6.3 | – |
| N#Cc1cnc2c(c1)C(=O)N(c1cnc(N[C@H]3CC[C@H](Nc4nc5cc(OC(F)F)ccn5n4)C3)c(F)c1)C2 [Example 153] | 800 | 12.2 | – |
| O=C1c2ccc(Cl)cc2CN1c1ccc(N[C@H]2CC[C@H](Nc3nc4cc(C(F)(F)F)ccn4n3)C2)nc1 [Example 117] | 400 | 18.3 | – |
| O=C1c2cc(Cl)cnc2CN1c1ccc(N[C@H]2CC[C@H](Nc3nc4cc(OC(F)F)ccn4n3)C2)nc1 [Example 130] | 1500 | – | AUC(0-inf) [2]: 57900 ng·h/mL; half-life [2]: 3.6 h; MRT [2]: 6.1 h; Cmax [2]: 5090 ng/mL; Tmax [2]: 1 h |
| Cc1cnc2c(c1)CN(c1ccc(N[C@H]3CC[C@H](Nc4nc5cc(C(F)(F)F)ccn5n4)C3)nc1)C2=O [Example 94] | 20500 | 9.5 | – |
| O=C1c2cc(Cl)cnc2CN1c1ccc(N[C@H]2CC[C@H](Nc3nc4cc(C(F)(F)F)ccn4n3)C2)nc1 [Example 116] | 500 | 16.4 | – |
| O=C1c2ccc(C3CC3)nc2CN1c1ccc(N[C@H]2CC[C@H](Nc3nc4cc(C(F)(F)F)ccn4n3)C2)nc1 [Example 68, 2-cyclopropyl-6-(6-(((1S,3S)-3-((7-(trifluoromethyl)-[1,2,4]triazolo[1,5-a]pyridin-2-yl)amino)cyclopentyl)amino)pyridin-3-yl)-6,7-dihydro-5H-pyrrolo[3,4-b]pyridin-5-one] | 2000 | 9.8 | – |
| Cc1cn(-c2ccc(N[C@H]3CC[C@H](Nc4nc5cc(C(F)(F)F)ccn5n4)C3)nc2)c(=O)nc1N [Example 109] | 19600 | 16.1 | – |
| Cc1ccc2c(c1)C(=O)N(c1ccc(N[C@H]3CC[C@H](Nc4nc5cc(C(F)(F)F)ccn5n4)C3)nc1)C2 [Example 82, 6-methyl-2-(6-(((1S,3S)-3-((7-(trifluoromethyl)-[1,2,4]triazolo[1,5-a]pyridin-2-yl)amino)cyclopentyl)amino)pyridin-3-yl)isoindolin-1-one] | 800 | 11.8 | – |
| Cc1cn(-c2ccc(N[C@H]3CC[C@H](Nc4nc5cc(C(F)(F)F)ccn5n4)C3)nc2)c(=O)nc1O [Example 111] | 11200 | 16.2 | – |
| Cc1cnc2c(c1)C(=O)N(c1ccc(N[C@H]3CC[C@H](Nc4nc5cc(C(F)(F)F)ccn5n4)C3)nc1)C2 [Example 115] | 2600 | 9.9 | – |
| CC(C)(O)c1ccn(-c2ccc(N[C@H]3CC[C@H](Nc4nc5cc(C(F)(F)F)ccn5n4)C3)nc2)c(=O)c1 [Example 81, 4-(2-hydroxypropan-2-yl)-6′-(((1S,3S)-3-((7-(trifluoromethyl)-[1,2,4]triazolo[1,5-a]pyridin-2-yl)amino)cyclopentyl)amino)-2H-[1,3′-bipyridine]-2-one] | 26500 | – | – |
| O=C1c2ccc(F)cc2CN1c1ccc(N[C@H]2CC[C@H](Nc3nc4cc(C(F)(F)F)ccn4n3)C2)nc1 [Example 86, 5-fluoro-2-(6-(((1S,3S)-3-((7-(trifluoromethyl)-[1,2,4]triazolo[1,5-a]pyridin-2-yl)amino)cyclopentyl)amino)pyridin-3-yl)isoindolin-1-one] | 900 | – | – |
| Cc1cc2c(cn1)CN(c1ccc(N[C@H]3CC[C@H](Nc4nc5cc(OC(F)F)ccn5n4)C3)nc1)C2=O [Example 99] | 6600 | – | AUC(0-inf) [2]: 27900 ng·h/mL; half-life [2]: 2.7 h; MRT [2]: 3.4 h; Cmax [2]: 7240 ng/mL; Tmax [2]: 0.25 h |
| N#Cc1cnc2c(c1)CN(c1ccc(N[C@H]3CC[C@H](Nc4nc5cc(C(F)(F)F)ccn5n4)C3)nc1)C2=O [Example 96] | 12700 | – | – |
| O=c1[nH]cccc1-c1ccc(N[C@H]2CC[C@H](Nc3nc4cc(C(F)(F)F)ccn4n3)C2)nc1 [Example 73, 6′-(((1S,3S)-3-((7-(trifluoromethyl)-[1,2,4]triazolo[1,5-a]pyridin-2-yl)amino)cyclopentyl)amino)-[3,3′-bipyridine]-2(1H)-one] | 14300 | – | – |
| N#Cc1cc2c(cn1)CN(c1ccc(N[C@H]3CC[C@H](Nc4nc5cc(C(F)(F)F)ccn5n4)C3)nc1)C2=O [Example 66, 1-carbonyl-2-(6-(((1S,3S)-3-((7-(trifluoromethyl)-[1,2,4]triazolo[1,5-a]pyridin-2-yl)amino)cyclopentyl)amino)pyridin-3-yl)-2,3-dihydro-1H-pyrrolo[3,4-c]pyridine-6-carbonitrile] | 800 | – | – |
| Cc1cc(N[C@H]2CC[C@H](Nc3nc4cc(C(F)(F)F)ccn4n3)C2)ncc1N1Cc2cccnc2C1=O [Example 113] | 6900 | – | – |
| Cc1ccc2c(c1)CN(c1ccc(N[C@H]3CC[C@H](Nc4nc5cc(C(F)(F)F)ccn5n4)C3)nc1)C2=O [Example 85, 5-methyl-2-(6-(((1S,3S)-3-((7-(trifluoromethyl)-[1,2,4]triazolo[1,5-a]pyridin-2-yl)amino)cyclopentyl)amino)pyridin-3-yl)isoindolin-1-one] | 2600 | – | – |
| O=C1c2cccnc2CN1c1cnc(N[C@H]2CC[C@H](Nc3nc4cc(C(F)(F)F)ccn4n3)C2)c(F)c1 [Example 162] | 5300 | – | – |
| Cc1cc2c(c(C)n1)CN(c1ccc(N[C@H]3CC[C@H](Nc4nc5cc(F)ccn5n4)C3)nc1)C2=O [Example 51, 2-(6-(((1S,3S)-3-((7-fluoro-[1,2,4]triazolo[1,5-a]pyridin-2-yl)amino)cyclopentyl)amino)pyridin-3-yl)-4,6-dimethyl-2,3-dihydro-1H-pyrrolo[3,4-c]pyridin-1-one] | 21300 | – | – |
